# Data: PMC6660600, “Odorant Inhibition in Mosquito Olfaction” (iScience, 2019)
# Legend:
# Experiment in all cases: voltage clamp of Xenopus oocytes
# Assay type in all cases: cell-based
# [1] = target: T1, CquiOR32-CquiOrco (Culex quinquefasciatus, UniProt A0A3S7SHH6); settings: agonist (inward current), dose-dependent, coexpressed with CquiOrco
# T1 construct: gene OR32; full-length OR coexpressed with Orco in Xenopus oocytes; heteromeric ligand-gated cation channel; with Odorant receptor coreceptor Orco
# T1 sequence (A0A3S7SHH6 1-397): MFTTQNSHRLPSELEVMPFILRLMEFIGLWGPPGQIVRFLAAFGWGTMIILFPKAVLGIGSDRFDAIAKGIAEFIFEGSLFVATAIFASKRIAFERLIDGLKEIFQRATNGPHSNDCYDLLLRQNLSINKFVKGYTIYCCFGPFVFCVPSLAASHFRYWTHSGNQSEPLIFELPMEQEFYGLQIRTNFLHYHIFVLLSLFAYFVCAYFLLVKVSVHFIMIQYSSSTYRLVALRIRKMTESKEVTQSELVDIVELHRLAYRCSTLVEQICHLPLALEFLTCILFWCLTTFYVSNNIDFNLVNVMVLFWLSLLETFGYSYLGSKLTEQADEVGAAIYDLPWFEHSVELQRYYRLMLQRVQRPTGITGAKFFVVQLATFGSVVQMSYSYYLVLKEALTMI
# T1 sequence (Q309I4 1-480 partner): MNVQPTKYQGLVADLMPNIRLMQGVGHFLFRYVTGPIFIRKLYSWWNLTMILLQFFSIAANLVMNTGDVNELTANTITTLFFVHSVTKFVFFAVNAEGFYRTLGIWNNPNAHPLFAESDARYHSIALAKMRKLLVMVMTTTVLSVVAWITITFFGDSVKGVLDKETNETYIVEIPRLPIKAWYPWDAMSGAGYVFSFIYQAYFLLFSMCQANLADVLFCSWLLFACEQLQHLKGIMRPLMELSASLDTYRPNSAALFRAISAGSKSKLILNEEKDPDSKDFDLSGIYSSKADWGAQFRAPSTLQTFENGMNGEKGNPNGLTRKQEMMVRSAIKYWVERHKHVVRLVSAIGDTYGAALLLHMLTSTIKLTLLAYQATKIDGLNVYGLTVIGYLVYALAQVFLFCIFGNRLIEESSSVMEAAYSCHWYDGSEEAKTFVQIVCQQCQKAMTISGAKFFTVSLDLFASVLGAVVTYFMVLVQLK
# [2] = target: T1, CquiOR32-CquiOrco; settings: agonist (inward current), absolute value, coexpressed with CquiOrco
# [3] = target: T1, CquiOR32-CquiOrco; settings: inhibitor (reverse current), coexpressed with CquiOrco
# [4] = target: T1, CquiOR32-CquiOrco; settings: inhibitor (reverse current), absolute value, coexpressed with CquiOrco
# [5] = target: T2, CquiOrco (Culex quinquefasciatus, UniProt Q309I4); settings: Orco agonist; Orco expressed alone
# T2 construct: full-length Orco expressed alone in Xenopus oocytes
# T2 sequence (Q309I4 1-480): T1 sequence (Q309I4 1-480 partner)
smiles,measurement,setting,value
"O=C1CCCCC1 [CYC, cyclohexanone]",inward current,[1]; 1 mM (Figure 1A),"various odorants, including cyclohexanone, methyl salicylate, and 2-methyl-2-thiazoline"
CC(=O)c1ccccc1 [acetophenone],inward current at 1 mM,[2],58 ± 12 nA
CCC(C)OC(=O)N1CCCCC1CCO (stereo not drawn) [picaridin],reverse current,[3]; 1 mM (Figure 1A),"eucalyptol, fenchone, DEET, picaridin, IR3535, PMD, and other compounds generated currents in reverse direction"
CCC1CCC(=O)O1 (stereo not drawn) [γ-hexalactone],inward current at 1 mM,[2],115 ± 14 nA
"COC(=O)c1ccccc1O [MS, methyl salicylate]",inward current,[1],"Methyl salicylate elicited inward currents, and eucalyptol generated currents in the reverse direction"
"CC1=NCCS1 [2MT, 2-methyl-2-thiazoline]",inward current,[1]; 1 mM (Figure 1A),"various odorants, including cyclohexanone, methyl salicylate, and 2-methyl-2-thiazoline"
CCN(CC)C(=O)c1cccc(C)c1 [DEET],reverse current,[3]; 1 mM (Figure 1A),"eucalyptol, fenchone, DEET, picaridin, IR3535, PMD, and other compounds generated currents in reverse direction"
"CC12CCC(CC1)C(C)(C)O2 [EUC, eucalyptol]",reverse current,"[3]; dose-dependent, also reduces methyl salicylate response, proposed negative allosteric modulator",eucalyptol generated currents in the reverse direction
"CC12CCC(C1)C(C)(C)C2=O (stereo not drawn) [FEN, fenchone]",reverse current,[3]; 1 mM (Figure 1A),"eucalyptol, fenchone, DEET, picaridin, IR3535, PMD, and other compounds generated currents in reverse direction"
CC1=CCC(=C(C)C)CC1 [terpinolene],reverse current at 1 mM,[4],38 ± 8 nA
OCCc1ccccc1 [2-phenylethanol],inward current at 1 mM,[2],44 ± 9 nA
CCc1ccc(NC(=O)CSc2nnc(-c3cccnc3)n2CC)cc1 [VUAA-1],current,[5],"Response of a CquiOrco-expressing oocyte to Orco agonist, VUAA-1, is displayed in an inset."
CC1=CC=C(C(C)C)CC1 [α-terpinene],reverse current at 1 mM,[4],43 ± 5 nA
CCC(C)=O [2-butanone],inward current at 1 mM,[2],45 ± 7 nA
COc1ccccc1O [guaiacol],inward current at 1 mM,[2],101 ± 11 nA
